Here are results for three substances from patent US9867884B2, “Vascular delivery systems” (Ben-Gurion University of the Negev Research and Development …, priority 2008, dated 2018).

Where two headings read alike, the source gives them in different places. Ends that are not written are not given here. * marks the point of attachment. Methacryloyl = C=C(C)C(=O)*

The target of one test is T1, E-selectin (Homo sapiens, UniProt P16581).
T1 sequence (P16581 22-556 limits assumed): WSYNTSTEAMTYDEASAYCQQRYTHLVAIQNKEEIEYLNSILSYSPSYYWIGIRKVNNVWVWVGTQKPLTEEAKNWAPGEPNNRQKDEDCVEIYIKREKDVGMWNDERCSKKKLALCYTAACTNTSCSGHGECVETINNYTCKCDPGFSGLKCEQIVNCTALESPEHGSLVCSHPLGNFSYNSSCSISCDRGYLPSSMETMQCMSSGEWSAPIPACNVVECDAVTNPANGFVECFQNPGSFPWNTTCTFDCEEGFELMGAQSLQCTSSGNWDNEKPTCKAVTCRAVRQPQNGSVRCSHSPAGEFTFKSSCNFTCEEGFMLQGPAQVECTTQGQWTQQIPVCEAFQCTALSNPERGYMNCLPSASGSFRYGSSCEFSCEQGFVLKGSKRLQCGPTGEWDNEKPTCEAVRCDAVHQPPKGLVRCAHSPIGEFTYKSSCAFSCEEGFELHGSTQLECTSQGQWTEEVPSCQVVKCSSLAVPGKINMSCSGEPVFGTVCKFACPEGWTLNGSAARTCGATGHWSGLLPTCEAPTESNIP
Briefly: Inhibition of HL-60 adhesion to recombinant soluble E-selectin coated plates (competitive inhibition assay). It is filed as binding. Here is the method: The percentage of bound HL-60 cells is determined with o-phenylenediamine as a substrate for myeloperoxidases released from lysed cells. […] FIG. 3B depicts binding in the presence of P-Glu-Gly-QA, PAAsLe^x and pHPMA polymers; FIG. 3C depicts binding of P-Glu-Gly-QA and P-Gly-Gly-Lys(Glu)-QA conjugates.
Affinity of Esbp and P-Esbp to E-selectin was evaluated by a competitive inhibition assay of HL-60 to immobilized E-selectin. […] FIG. 7B the results of an inhibition assay with P-Esbp and P-GG-OH, under the same procedure as in FIG. 7A. In this figure diamonds are P-Esbp and squares are P-GG-OH.
The percentage of bound HL-60 cells is determined with o-phenylenediamine as a substrate for myeloperoxidases released from lysed cells. All assays is performed in duplicates.

Another test has as its system leukocyte adhesion. The settings on record: have been shown (prior report); read-out: IC50 of inhibition of leukocyte adhesion; cited from earlier work.
For test [1], the system named is E-selectin expressing cells (human IVECs). Briefly: Confocal microscopy of uptake and lysosomal colocalization of FITC-labeled copolymer conjugates in IVECs. Format: cell-based. The settings on record: Example 17, activated and non-activated human IVECs (FIG. 14). The procedure:
Internalization of P-sLe^x-FITC and P-QA-FITC conjugates by endothelial cells was studied using confocal laser scanning microscopy (CLSM). Human IVECs grown on cover glass, and treated with the polymer conjugate, and probed for localization of the polymer within lysosomal vessicles. After 24 hours incubation, cells are washed with cold phosphate-buffered saline (PBS) and fixed with 4% PFA. The cells on the cover glass are mounted in antibleach reagent on slides, examined using a CLSM, and analyzed.
Confocal microscopy was used to evaluate the subcellular fate of the FITC labeled copolymer conjugates by human immortalized vascular endothelial cells, IVECs. Lysotracker Red DND-99 (Molecular Probes, Leiden, The Netherlands) was selected to visualize lysosomes. Cells ([…]) were seeded onto gelatin coated cover slips in 24 wells plate with 500 μL endothelial cells culture medium (Promocell) and incubated for 24 hr. […] Quantitative analysis was performed using Image-Pro Plus 4.0 (Media Cybernetics, Silver Spring, Md.). Fluorescence intensities were expressed in arbitrary units per square micron. […]
Confocal microscopy was used to evaluate the uptake of P-Esbp. […] After removal of medium cells were incubated with 0.5 ml medium with 50 μg/ml of FITC labeled P-Esbp solution for 6 or 24 hours and subjected to fluorescence microscopy. […]

Test [2] deals with E-selectin expressing cells (IVECs). Nature of the test: Flow cytometry of binding and uptake of FITC-labeled conjugates by IVECs. It is filed as cell-based, human. The settings on record: 1 h at 4° C., E-selectin expressing cells (FIG. 12). Here is the method: FIG. 11A-F depicts the results of flow cytometry assays of IVECs incubated with P-Esbp at different temperatures. FIGS. 11(A)-(D) depict results of IVECs incubated 4° C. for 1 hour, while FIGS. 11(E)-(F) depict results of IVECs incubated 37° C. for 15 hr in activated (F) and non-activated (E) cells. FIGS. 11A and 11B show results of incubation with P-Esbp at a concentration of 10 and 50 μg/ml, respectively in TNF-α activated cells, versus 11C and D, which show the results of non-activated cells incubated with the same concentration of P-Ebsp, respectively. Fluorescence, size and number of cells were all measured with GUAVA Tech-Mini Easycyte at 520 nm. Statistical analysis of the results was performed with Cytosoft software (GUAVA Tech). Gates for size and fluorescence were set according to the control experiment with P-GG-OH incubated with non activated IVEC cells.
At 37° C. […]
E-selectin expressing cells were treated with P-Esbp and P-Scrmb as described in previous examples, to determine binding, in activated and non-activated cells (FIG. 12). Cells were treated with P-Esbp and P-Scrmb conjugates for 1 h at 4° C. and evaluated for binding. […] Binding of P-Esbp and scrambled Esbp peptide sequence polymer conjugates (P-Scrmb) to E-selectin expressing cells was similarly evaluated, when cells were also contacted with or without free peptides (FIG. 13). […]
On the technique in general: In flow cytometry, cells or beads pass a laser one at a time.

The IC50 is the concentration that inhibits the measured activity by half.

Regarding “N-methacryloyl-aminopropyl-Glutamyl-Glycyl-quinic acid [MAP-Glu-Gly-QA]”, the IC50 at E-selectin (monomers, HL-60 adhesion to immobilized E-selectin, 15 min (FIG. 3A), read-out: Inhibition of 50% binding (IC50) value) came out at 10000 µM.

In the case of DITWDQLWDLMK [Esbp, reference compound], the IC50 is 10 µM at E-selectin (Esbp monomer, FIG. 7A, read-out: IC50) and 0.004 µM in the test on leukocyte adhesion.

Regarding “P-Scrmb: scrambled Esbp peptide sequence polymer conjugate, GKMIDWTWLQLDD (SEQ ID NO: 8) (Methacryloyl-GGGKMIDWTWLQLDD; also: polymer conjugate, FITC)”, in test [1], the “internalization and colocalization with lysosomal marker” value is given as “did not show reasonable internalization or colocalization”. For the same substance, the “percentage of labeled cells” value in test [2] is listed as 6%.
